From patent US7807707B2, “Hair and/or scalp care compositions incorporating amino-oxo-indole-ylidene compounds” (priority 2005, dated 2010)

How the values were obtained:
[1] = target: T1, Cannabinoid Receptor 2 (CB2R) (Homo sapiens, UniProt P34972); assay: CB2R radioligand assay on membranes from HEK293 cells over-expressing human recombinant CB2; type: binding
T1 construct: purchased Perkin-Elmer; host or cells: HEK293
Protocol: (§1) An amino-oxo-indole-ylidene compound of formula (I) was evaluated for its ability to activate Cannabinoid Receptor 1 (CB1R) and Cannabinoid Receptor 2 (CB2R). Its C log P value were also measured.
CB2R experiments were performed using membranes from HEK293 cells over-expressing human recombinant CB2, as described by the manufacturer (Perkin-Elmer), and using [3H]CP-55,495 as the radioligand.
(§2) Data of the active compound is expressed in Ki (mM) and are means±SEM of n=3 determinations.
(§3) The value stated is an EC50 value. This is defined as the molar concentration of an agonist, which produces 50% of the maximum possible response for that agonist. The values documented are in micromolar units.

[2] = target: T2, Cannabinoid Receptor 1 (CB1R) (Homo sapiens, UniProt P21554); assay: CB1R radioligand assay on membranes from HEK293 cells over-expressing human recombinant CB1; type: binding; conditions: human recombinant CB1, [3H]CP-55,490 radioligand, n=3
T2 construct: purchased Perkin-Elmer; host or cells: HEK293
Protocol: as §1
CB1R experiments were performed using membranes from HEK293 cells over-expressing human recombinant CB1, as described by the manufacturer (Perkin-Elmer) and using [3H]CP-55,490 as the radioligand.
as §2, §3

T1 sequence (P34972 whole entry): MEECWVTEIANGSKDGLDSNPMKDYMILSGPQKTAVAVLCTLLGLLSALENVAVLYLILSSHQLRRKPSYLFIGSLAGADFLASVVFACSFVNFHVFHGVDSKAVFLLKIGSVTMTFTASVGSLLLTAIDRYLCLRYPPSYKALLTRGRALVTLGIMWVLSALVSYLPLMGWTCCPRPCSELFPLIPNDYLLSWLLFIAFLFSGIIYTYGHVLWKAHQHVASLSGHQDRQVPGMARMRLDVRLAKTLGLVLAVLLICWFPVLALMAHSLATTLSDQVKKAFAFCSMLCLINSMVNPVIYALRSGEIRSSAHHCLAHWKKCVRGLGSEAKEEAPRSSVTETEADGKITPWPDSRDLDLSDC
T2 sequence (P21554 whole entry): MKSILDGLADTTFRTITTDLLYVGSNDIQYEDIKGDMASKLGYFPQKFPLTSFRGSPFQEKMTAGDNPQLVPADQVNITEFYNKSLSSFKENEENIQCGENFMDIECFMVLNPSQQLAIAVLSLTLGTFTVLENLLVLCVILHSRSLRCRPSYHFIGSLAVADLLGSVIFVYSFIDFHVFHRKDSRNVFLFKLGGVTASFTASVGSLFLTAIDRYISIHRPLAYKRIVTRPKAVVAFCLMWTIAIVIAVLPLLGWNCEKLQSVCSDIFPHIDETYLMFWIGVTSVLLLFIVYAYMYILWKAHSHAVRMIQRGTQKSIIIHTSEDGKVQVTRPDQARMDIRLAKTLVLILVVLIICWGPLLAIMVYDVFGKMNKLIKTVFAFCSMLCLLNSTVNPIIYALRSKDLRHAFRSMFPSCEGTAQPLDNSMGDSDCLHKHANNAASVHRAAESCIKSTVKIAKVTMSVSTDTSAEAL

O=C(CNc1cccc2ccccc12)N/N=C1\C(=O)N(CCc2ccccc2)c2ccccc21 [Example 1, (naphthalen-1-ylamino)-acetic acid (2-oxo-1-phenethyl-1,2-dihydro-indol-3-ylidene)-hydrazide]
EC50 [1]: 21.1 µM | EC50 [2]: > 25 µM
